Experiments:
[1] = Growth inhibition of human gastric cancer cells after 72 hrs by sulforhodamine B assay; format: functional; conditions: Cancer cell lines, Stomach, pooled result: one value given for 3 cell lines, strains, targets or settings
Cancer cell lines [2] = assay: Ratio of compound GI50 to etoposide GI50 for human lung cancer cells; format: functional
Cancer cell lines [3] = assay: Ratio of compound GI50 to etoposide GI50 for human colon cancer cells; format: functional
Cancer cell lines [4] = assay: Ratio of compound GI50 to etoposide GI50 for human gastric cancer cells; format: functional, Stomach
[5] = target: DNA topoisomerase 2-alpha (Mus musculus) (UniProt Q01320); assay: Ratio of compound to etoposide on inhibitory effect of mouse DNA topoisomerase 2
DNA topoisomerase 2-alpha (Mus musculus), sequence (Q01320 whole entry): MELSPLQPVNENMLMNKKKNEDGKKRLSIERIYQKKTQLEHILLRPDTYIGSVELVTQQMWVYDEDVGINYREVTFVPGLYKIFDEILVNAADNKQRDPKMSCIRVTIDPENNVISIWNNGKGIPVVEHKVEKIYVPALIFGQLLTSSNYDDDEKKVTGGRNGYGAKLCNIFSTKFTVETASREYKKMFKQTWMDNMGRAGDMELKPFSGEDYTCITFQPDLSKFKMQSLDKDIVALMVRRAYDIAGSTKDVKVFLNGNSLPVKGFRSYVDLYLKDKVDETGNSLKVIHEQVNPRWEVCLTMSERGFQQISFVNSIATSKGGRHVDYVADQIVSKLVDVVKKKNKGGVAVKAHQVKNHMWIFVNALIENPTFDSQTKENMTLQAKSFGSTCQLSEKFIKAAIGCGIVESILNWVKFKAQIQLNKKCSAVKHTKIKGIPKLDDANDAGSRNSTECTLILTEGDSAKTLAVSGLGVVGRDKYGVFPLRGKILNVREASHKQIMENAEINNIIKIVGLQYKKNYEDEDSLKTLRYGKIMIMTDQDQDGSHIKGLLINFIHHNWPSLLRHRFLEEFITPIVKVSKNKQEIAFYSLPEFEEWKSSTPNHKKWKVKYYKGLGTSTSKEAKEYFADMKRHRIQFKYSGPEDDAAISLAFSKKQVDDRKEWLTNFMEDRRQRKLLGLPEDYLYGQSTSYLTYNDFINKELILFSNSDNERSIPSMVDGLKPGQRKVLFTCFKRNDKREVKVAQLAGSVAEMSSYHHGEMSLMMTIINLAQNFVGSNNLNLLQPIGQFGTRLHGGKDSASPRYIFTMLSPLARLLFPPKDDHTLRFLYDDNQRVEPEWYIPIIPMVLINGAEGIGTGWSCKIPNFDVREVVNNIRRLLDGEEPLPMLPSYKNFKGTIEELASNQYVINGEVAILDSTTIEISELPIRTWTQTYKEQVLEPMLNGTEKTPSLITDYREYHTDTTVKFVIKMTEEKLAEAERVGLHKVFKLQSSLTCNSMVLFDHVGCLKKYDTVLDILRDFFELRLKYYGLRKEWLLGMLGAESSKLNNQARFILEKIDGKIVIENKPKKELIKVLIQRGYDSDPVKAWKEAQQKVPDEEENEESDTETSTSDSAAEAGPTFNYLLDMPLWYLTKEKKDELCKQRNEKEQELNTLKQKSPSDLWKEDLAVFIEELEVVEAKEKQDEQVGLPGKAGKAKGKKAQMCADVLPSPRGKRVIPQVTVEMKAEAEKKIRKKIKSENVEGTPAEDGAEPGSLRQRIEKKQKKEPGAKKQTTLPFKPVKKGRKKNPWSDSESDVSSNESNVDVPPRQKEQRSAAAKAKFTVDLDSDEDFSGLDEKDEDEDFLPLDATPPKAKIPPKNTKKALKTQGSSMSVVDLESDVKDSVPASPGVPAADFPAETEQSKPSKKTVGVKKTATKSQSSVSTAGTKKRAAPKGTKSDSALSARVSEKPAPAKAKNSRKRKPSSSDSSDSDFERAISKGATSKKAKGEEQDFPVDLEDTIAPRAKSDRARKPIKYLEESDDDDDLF

| Structure (SMILES) | GI50 [1] [µM] | further results |
| --- | --- | --- |
| O=C(O)c1ccc2[nH]c(CNc3nccs3)nc2c1 | 47 | – |
| CCc1c2c(nc3ccc(O)cc13)-c1cc3c(c(=O)n1C2)COC(=O)[C@]3(O)CC [7-ETHYL-10-HYDROXYCAMPTOTHECIN] | 0.066 | – |
| COc1cc([C@@H]2c3cc4c(cc3[C@@H](O[C@@H]3O[C@@H]5CO[C@@H](C)O[C@H]5[C@H](O)[C@H]3O)[C@H]3COC(=O)[C@H]23)OCO4)cc(OC)c1O [ETOPOSIDE] | 1.3 | – |
| O=C(O)c1ccc2[nH]c(CNc3ccccn3)nc2c1 | 22 | – |
| O=C(O)c1ccc2[nH]c(CNc3nc4ccccc4[nH]3)nc2c1 | > 100 | – |
| O=C(O)c1ccc2[nH]c(CNc3ccncc3)nc2c1 | 17 | – |
| O=C(O)c1ccc2[nH]c(CCl)nc2c1 | > 100 | – |
| COc1cccc2c1C(=O)c1c(O)c3c(c(O)c1C2=O)C[C@@](O)(C(=O)CO)C[C@@H]3O[C@H]1C[C@H](N)[C@H](O)[C@H](C)O1 [DOXORUBICIN] | 0.065 | – |
| O=C(O)c1ccc2[nH]c(C[n+]3ccccc3)nc2c1.[Cl-] | 0.095 | RatioGI50 (Cancer cell lines [2]): 7; RatioGI50 (Cancer cell lines [3]): 7; RatioGI50 (Cancer cell lines [4]): 7; Ratio [5]: 10 |

Reference: ChEMBL document CHEMBL1629468, “Synthesis and antitumor activity of novel benzimidazole-5-carboxylic acid derivatives and their transition metal complexes as topoisomerease II inhibitors” (2010)
